Experimental data reported in ChEMBL document CHEMBL1828524, “Monoamine oxidase inhibition by selected anilide derivatives” (Eur J Med Chem, 2011).

Columns and labels:
[1] = target: T1, Amine oxidase [flavin-containing] A (Homo sapiens, UniProt P21397); experiment: Inhibition of human recombinant MAO-A assessed as oxidation of kynuramine to 4-hydroxyquinoline after 20 mins
T1 sequence (P21397 whole entry): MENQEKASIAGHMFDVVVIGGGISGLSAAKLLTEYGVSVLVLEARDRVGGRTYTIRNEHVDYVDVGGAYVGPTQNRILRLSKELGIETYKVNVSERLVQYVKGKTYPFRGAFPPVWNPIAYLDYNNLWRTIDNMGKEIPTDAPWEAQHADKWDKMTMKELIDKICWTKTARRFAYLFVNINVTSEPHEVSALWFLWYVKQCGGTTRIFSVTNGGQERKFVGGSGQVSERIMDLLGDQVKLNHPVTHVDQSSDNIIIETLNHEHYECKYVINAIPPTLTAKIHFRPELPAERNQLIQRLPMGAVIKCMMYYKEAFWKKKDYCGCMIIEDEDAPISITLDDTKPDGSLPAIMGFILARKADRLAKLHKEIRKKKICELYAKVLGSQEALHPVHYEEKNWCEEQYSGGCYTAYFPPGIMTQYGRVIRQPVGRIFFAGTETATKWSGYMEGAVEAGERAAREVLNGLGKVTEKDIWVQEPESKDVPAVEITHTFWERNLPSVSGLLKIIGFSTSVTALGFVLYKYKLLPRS

[2] = target: T2, Amine oxidase [flavin-containing] B (Homo sapiens, UniProt P27338); experiment: Inhibition of human recombinant MAO-B assessed as oxidation of kynuramine to 4-hydroxyquinoline after 20 mins
T2 sequence (P27338 whole entry): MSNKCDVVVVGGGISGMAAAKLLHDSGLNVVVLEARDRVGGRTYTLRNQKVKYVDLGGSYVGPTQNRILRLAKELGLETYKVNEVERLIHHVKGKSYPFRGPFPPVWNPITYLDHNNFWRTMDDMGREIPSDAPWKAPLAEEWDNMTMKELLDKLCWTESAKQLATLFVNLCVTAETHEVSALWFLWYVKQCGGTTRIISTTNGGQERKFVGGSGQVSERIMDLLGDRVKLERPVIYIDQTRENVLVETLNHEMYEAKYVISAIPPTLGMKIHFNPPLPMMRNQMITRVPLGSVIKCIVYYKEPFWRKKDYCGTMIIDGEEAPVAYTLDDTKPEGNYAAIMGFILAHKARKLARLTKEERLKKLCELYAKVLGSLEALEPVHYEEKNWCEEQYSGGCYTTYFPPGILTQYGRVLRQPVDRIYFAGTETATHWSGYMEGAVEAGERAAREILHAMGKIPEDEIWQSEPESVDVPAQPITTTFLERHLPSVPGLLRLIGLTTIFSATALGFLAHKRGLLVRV

[3] = target: T1, Amine oxidase [flavin-containing] A; experiment: Inhibition of human recombinant MAO-A assessed as oxidation of kynuramine to 4-hydroxyquinoline at 100 uM after 20 mins

| SMILES | IC50 [1] [µM] | IC50 [2] [µM] | inhibition (INH) [3] |
| --- | --- | --- | --- |
| O=C(C/C=C/c1ccccc1)Nc1cccc(Cl)c1 | 58.4 | 23.5 | – |
| N#Cc1ccc(/C=C/C(=O)Nc2cccc(Br)c2)cc1 | 36.2 | 0.289 | – |
| N#Cc1cccc(/C=C/C(=O)Nc2cccc(Cl)c2)c1 | 13.5 | 0.09 | – |
| O=C(/C=C/C=C/c1ccccc1)Nc1cccc(Cl)c1 | 98.2 | 2.2 | – |
| O=C(/C=C/C=C/c1ccccc1)Nc1cccc(Br)c1 | 105 | 2.73 | – |
| O=C(C/C=C/c1ccccc1)Nc1ccccc1 | 297 | 33.2 | – |
| N#Cc1cccc(/C=C/C(=O)Nc2cccc(Br)c2)c1 | 27.2 | 0.059 | – |
| O=C(/C=C/C=C/c1ccccc1)Nc1ccccc1 | – | 5.16 | Not Active |
| O=C(/C=C/c1cccc(O)c1)Nc1cccc(Br)c1 | – | 1.01 | Not Active |
| Cc1cccc(NC(=O)/C=C/C=C/c2ccccc2)c1 | 335 | 6.65 | – |
| Cc1cccc(NC(=O)C/C=C/c2ccccc2)c1 | 74.8 | 48.1 | – |
| O=C(/C=C/c1ccc(O)cc1)Nc1cccc(Br)c1 | 35.6 | 0.026 | – |
| Cc1cccc(NC(=O)/C=C/c2ccccc2)c1 [N-M-TOLYLCINNAMAMIDE] | 48.1 | 4.5 | – |
| N#Cc1ccc(/C=C/C(=O)Nc2cccc(Cl)c2)cc1 | 184 | 0.407 | – |
| O=C(/C=C/c1ccccc1)Nc1cccc(Br)c1 | 16.7 | 0.447 | – |
| O=C(C/C=C/c1ccccc1)Nc1cccc(Br)c1 | 34.5 | 30.9 | – |
